Test results taken from PubChem BioAssay (NCI).
Values joined by “and” are separate entries in the source; they are usually repeats but may differ in a detail not shown here. Equal entries are not always repeated.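 A five-concentration, 48-hour dose response in 96-well plates underlies each endpoint, interpolated linearly between surrounding concentrations. GI50 is the concentration that inhibits growth by half. TGI: total growth inhibition.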

Experiments:
Test in all cases: NCI-60 cell line screen, 48 h
[1] = system: HCT-15 colon
[2] = system: SR leukemia
[3] = system: OVCAR-3 ovarian
[4] = system: UACC-257 melanoma
[5] = system: OVCAR-8 ovarian
[6] = system: UACC-62 melanoma
[7] = system: EKVX NSCLC
[8] = system: TK-10 renal
[9] = system: NCI-H460 lung
[10] = system: A498 renal

Structure (SMILES) | TGI [1] [µM] | TGI [2] | TGI [3] [µM] | TGI [4] [µM] | TGI [5] [µM] | TGI [6] [µM] | TGI [7] [µM] | TGI [8] [µM] | TGI [9] [µM] | TGI [10] [µM] | GI50 [1] [nM] | GI50 [10] [nM] | GI50 [2] | GI50 [3] [nM] | GI50 [4] [nM] | GI50 [5] [µM] | GI50 [6] [nM] | GI50 [8] [nM] | GI50 [9] [nM] | GI50 [7] [nM]
C/C=C/C(=O)Oc1cccc2cccnc12 | 33.4 | > 100 µM | > 73.6 | 40.9 | 54.3 | > 39.5 | > 81.3 | > 100 | 23 | – | – | – | – | – | – | – | – | – | – | –
COc1cc(OCc2ccccc2)c2c(CCC(=O)O)cc(=O)oc2c1 (tested in a mixture with another compound) | > 100 | > 100 µM | > 100 | > 100 | > 100 | > 100 | > 100 | 96.6 | – | 80.6 | – | – | – | – | – | – | – | – | – | –
Cc1cccc(NC(=O)C(=O)C(C2OC(=O)c3ccccc32)[N+](=O)[O-])c1C (centres undefined) | 19.7 | > 100 µM | 5.11 | 17.6 | 26.8 | 23.1 | 46.3 | 32 | 18.7 | 32 | – | – | – | – | – | – | – | – | – | –
O=C(/C=C/c1ccc(Cl)c(Cl)c1)c1ccccc1Cl | 9.97 | 36.7 µM | 23 | 27.7 | 11.8 | 25.5 | 31.4 | 47.9 | 27.2 | 31.4 | – | – | – | – | – | – | – | – | – | –
C[P+]1(Cc2ccccc2)CCCC1 | > 100 | > 100 µM | > 100 | > 100 | > 100 | > 100 | > 100 | > 100 | > 100 | > 100 | – | – | – | – | – | – | – | – | – | –
O=C(O)c1ccc2c(c1)C(=O)N(c1ccc(S(=O)(=O)c3ccc(N4C(=O)c5ccc(C(=O)O)cc5C4=O)cc3)cc1)C2=O | > 100 | > 100 µM | > 100 | > 100 | > 100 | > 100 | > 100 | > 100 | > 100 | > 100 | – | – | – | – | – | – | – | – | – | –
COc1ccc(OC)c(Nc2nc3nonc3nc2Nc2cccc(Br)c2)c1 | > 100 | 10.9 µM | 21.6 | 7.37 | > 100 | 14.1 | – | 16.5 | > 100 | 4.11 | 756 | 461 | 2360 nM | 600 | 508 | 1.02 | 301 | 988 | 504 | –
Cc1ccc(S(=O)(=O)OCOS(=O)(=O)c2ccc(C)cc2)cc1 | > 100 | > 100 µM | > 100 | > 100 | > 100 | – | > 100 | > 100 | > 100 | – | – | – | – | – | – | – | – | – | – | –
CCN1CCN(c2nc(C)cc(NCc3cc(Nc4ccnc5cc(Cl)ccc45)ccc3F)n2)CC1 | 3.66 | 5.89 µM | 4.93 | 3.79 | 13.7 | – | 14 | 6.04 | 3.67 | 4.01 | 1460 | 1940 | 1300 nM | 1960 | 1890 | 3.2 | – | 2390 | 1560 | 3030
CC(=Nc1ccc(N(C)C)cc1)c1ccccc1 | 37.9 | 49.9 µM | 32.2 | – | > 100 | 33.6 | > 100 | 40.1 | > 100 | > 100 | – | – | – | – | – | – | – | – | – | –
COc1cccc(Nc2ncnc3cc(NC(=O)CCl)ccc23)c1 | 1.62 | – | 2.22 | 3.02 | 5.16 | 2.48 | 4.49 | 2.52 | 3.08 | 3.81 | 353 | 1720 | – | 768 | 1410 | 1.88 | 1130 | 1200 | 1320 | 1560
CCCCC(=O)N(c1ccc(Nc2c3ccccc3nc3cc([N+](=O)[O-])ccc23)cc1)S(C)(=O)=O | 29 | > 42.6 µM | 66.6 | 62.5 | 78.8 | 26.1 | – | > 84 | 12.8 | 13.1 | 4450 | 1710 | 1970 nM | 14200 | 14600 | 11 | 7120 | 7610 | 381 | –
COC(=O)[C@H](Cc1cn(C)cn1)NC(=O)[C@H](CC(=O)OCc1ccccc1)NC(=O)Nc1cc(C(F)(F)F)cc(C(F)(F)F)c1 | > 100 | 9.41 µM and 4.34 µM | 6.25 | 19.1 | 16.9 | – | – | – | 28.7 | 25.4 | 17900 | 12800 | 3670 nM and 2040 nM | 2500 | 6340 | 4.49 | – | – | 13400 | –
NCCCNc1nc2ccccc2c2c(=O)c3cc(F)ccc3sc12 | 2.84 | 4.09 µM | 3.25 | 3.81 | – | 3.01 | 3.01 | – | 3.22 | 3.36 | 1430 | 1480 | 1480 nM | 1700 | 1790 | – | 1620 | – | 1650 | 1570
C=C1c2nc3ccccc3n2C=C(c2cccc(Cl)c2)N1Cc1ccc(OC)cc1 | > 100 | 1.31 µM | – | > 100 | > 57.3 | 19.1 | 12.8 | > 64.9 | 10.5 | 60.4 | 535 | 9330 | 274 nM | – | 5640 | 2.43 | 937 | 6640 | 416 | 1070
CCC12C=CCN(CCc3c([nH]c4ccccc34)/C=C\1)C2 (centres undefined) | > 100 | > 100 µM | > 100 | > 100 | – | > 100 | > 100 | – | > 100 | > 100 | – | – | – | – | – | – | – | – | – | –
N#C/C(=C\c1c(O)cc(O)cc1O)C(N)=O | > 100 | – | > 100 | > 100 | > 100 | – | > 100 | > 100 | > 100 | > 100 | – | – | – | – | – | – | – | – | – | –
c1ccc(-c2[nH]ncc2-c2ccnc(-c3ccc(OCCN4CCOCC4)cc3)c2)nc1 | > 25 | – | > 25 | > 25 | > 25 | > 25 | > 25 | > 25 | > 25 | > 25 | > 25000 | > 25000 | – | > 25000 | > 25000 | > 25 | > 25000 | > 25000 | > 25000 | > 25000
